Entries after “also recorded” stand apart in the source; their conditions may differ. Like-named read-outs stand apart in the source and are kept apart here.
How the values were obtained:
[1] = tested on: HT22 cells; experiment: Protection of HT22 cells from oxidative glutamate toxicity (MTT assay); type: cell-based, mouse; details: for effect of higher levels of BSO on protection: 5 mM glutamate + 1 mM BSO; for EC50 / Emax: 5 mM glutamate, MTT assay; for EC50: read-out: EC50 (μM), protection from oxidative-stress induced death; for Emax: HT-22, read-out: Maximal Efficacy, protection from oxidative-stress induced death
From the text: Fisetin is effective at protecting nerve cells from oxidative stress-induced death (Ishige et al., Free Radic. Biol. Med., 30:433-446, 2001). This Example illustrates the structure-activity relationship between fisetin derivatives and neuroprotection in a model of oxidative glutamate toxicity using mouse HT22 cells. This pathway of programmed cell death is initiated by the addition of glutamate to the extracellular medium. Glutamate inhibits the uptake of cystine which is required for glutathione (GSH) biosynthesis, resulting in the depletion of GSH in neurons (for review see Tan et al., Curr. Top. Med. Chem., 1:497-506, 2001). Subsequently, this decrease in cellular GSH results in the production of reactive oxygen species (ROS) by mitochondria. The ROS accumulation then causes Ca^+2 influx from the extracellular medium which leads to cell death.
HT22 cells were untreated (Ct) or treated with 10 μM fisetin, 25 μM 3,3′-DHF, 25 μM 3,4′-DHF, 2.5 μM 3′,4′-DHF, 2.5 μM 3,3′,4′-THF 25 μM 3,7,3′-THF, 25 μM 3,7,4′-THF or 10 μM 7,3′,4′-THF in the presence of 5 mM glutamate±50 μM PD98059. Twenty four (24) hours later cell survival was measured by the MTT assay.
HT22 cells were untreated (Ct) or treated with 10 μM fisetin, 25 μM 3,3′-DHF. […] Protection by all of the other flavonoids was unaffected by BSO.
Cell viability was determined by a modified version of the 3-(4,5-dimethylthiazol-2-yl)-2,5-diphenyl tetrazolium bromide (MTT) assay based on the standard procedure (Hansen et al., J. Immunol. Meth., 119:203-10, 1989). Briefly, cells were seeded onto 96-well microtiter plates at a density of 5×10^3 cells per well. The next day, the medium was replaced with DMEM supplemented with 7.5% DFCS and the cells were treated with the different flavonoids alone or in the presence of 5 mM glutamate. Twenty four hours later, the medium in each well was aspirated and replaced with fresh medium containing 2.5 μg/ml MTT. After 4 hours of incubation at 37° C., cells were solubilized with 100 μl of a solution containing 50% dimethylformamide and 20% SDS (pH 4.7). The absorbance at 570 nm was measured on the following day with a microplate reader (Molecular Devices). Results obtained from the MTT assay correlated directly with the extent of cell death as confirmed visually. Controls employing wells without cells were used to determine the effects of the agents upon the assay chemistry.

[2] = tested on: Nrf2 and HO-1; experiment: Nrf2 and HO-1 induction in HT22 cells (immunoblotting); type: cell-based, mouse; details: for increasing the levels of Nrf2 and inducing HO-1 synthesis: HT22 cells, 10-25 μM, 4 hours (Nrf2), 24 hours (HO-1)
Description: Since the ability to activate the ARE could be important for some of the beneficial effects of flavonoids such as fisetin, it was determined which, if any, of the fisetin derivatives could activate the ARE and induce the synthesis of downstream proteins such as HO-1. HT22 cells were untreated (control) or treated with 10 μM fisetin, 25 μM 3,3′DHF, 25 μM 3,4′-DHF, 10 μM 3′,4′-DHF, 10 μM 3,3′,4′-THF, 25 μM 3,7,3′-THF, 25 μM 3,7,4′-THF or 10 μM 7,3′,4′-THF for 4 hours. Nuclei were prepared and equal amounts of protein were analyzed by SDS-PAGE and immunoblotting with anti-Nrf-2 antibodies.
ERK activation is implicated in the induction of Nrf2 by certain stimuli in some cell types. To determine if ERK activation plays a role in the induction of Nrf2 and HO-1 by fisetin and its derivatives, cells were pretreated with PD98059 prior to the addition of the flavonoids to the cells. HT22 cells then were untreated (control) or treated for 24 hours with 10 μM fisetin, 25 μM 3,3′-DHF, 25 μM 3,4′-DHF, 10 μM 3′,4′-DHF, 10 μM 3,3′,4′-THF, 25 μM 3,7,3′-THF, 25 μM 3,7,4′-THF or 10 μM 7,3′,4′-THF. Cell lysates were prepared and equal amounts of cellular protein were analyzed by SDS-PAGE and immunoblotting with anti-HO-1 antibodies. Immunoblotting with anti-actin was used as a loading control.
For immunoblotting of HO-1, untreated and flavonoid-treated HT22 cells from the same density cultures as used for the cell death assays were washed twice in cold phosphate-buffered saline (PBS) then scraped into lysis buffer containing 50 mM HEPES, pH 7.4, 150 mM NaCl, 50 mM NaF, 1.5 mM MgC2, 1 mM EGTA, 10% glycerol, 1% Triton X-100, 10 mM sodium pyrophosphate, 1 mM Na3VO4, 1 mM phenylmethylsulfonyl fluoride (PMSF), 15 μg/ml aprotinin, 1 μg/ml pepstatin, and 5 μg/ml leupeptin. Lysates were incubated at 4° C. for 30 minutes, and then cleared by centrifugation at 14,000 rpm for 10 minutes. For immunoblotting of Nr12, nuclear extracts were prepared as described (Schreiber et al., Nuc. Acids Res., 17:6419, 1989) from untreated and flavonoid-treated cells. […] Protein concentrations were determined using the BCA protein assay (Pierce). Equal amounts of protein were solubilized in 2.5×SDS sample buffer, separated on 10% SDS polyacrylamide gels and transferred to nitrocellulose. The primary antibodies used were: anti-Nrf2 (#SC13032; 1/1000) from Santa Cruz Biotechnology (Santa Cruz, Calif.) and anti-HO-1 (#SPA-896; 1/5000) from Stressgen (Victoria, BC Canada).

[3] = Trolox Equivalent Activity Concentration (ABTS decolorization assay); details: Trolox as reference
Description: To determine if the protection seen with the different fisetin derivatives correlated with their antioxidant properties, their Trolox Equivalent Activity Concentration (TEAC) values were determined. In this procedure, a compound is compared to Trolox, a water-soluble vitamin E analog, for its ability to reduce the radical cation of ABTS in aqueous solution. As reported previously, fisetin has a TEAC value of ˜3 (Table II). None of the derivatives had TEAC values in this range despite, in some cases, showing better protection against oxidative stress-induced death. Thus, there was no correlation with antioxidant activity as defined by TEAC value and protection in this system.
TEAC values for the flavonoids were determined according to (Re et al. Free Rad. Biol. Med., 26:1231-7, 1999) but modified for a plate reader. Briefly, 250 μl of 2,2′-azinobis(3-ethylbenzothiazoline 6-sulfonate)(ABTS) treated overnight with potassium persulfate and diluted to an OD of ˜0.7 at 734 nm was added to 2.5 μl of a flavonoid solution in ethanol. The change in absorbance due to the reduction of the ABTS radical cation was measured at 734 nm for 4 minutes. To calculate the TEAC, the gradient of the plot of the percentage inhibition of absorbance vs. concentration for the flavonoid in question is divided by the gradient of the plot for Trolox.

[4] = Mus musculus, HT-22, 24 h, HT22 cells, 24 hours
[5] = Mus musculus, HT22 cells, 24 hours

| Compound | effect of higher levels of BSO on protection ([1]; 24 hours, MTT) | protection from oxidative stress-induced death ([1]; HT22 cells, glutamate) | EC50 [1, 4] [µM] | Emax [1, 5] [%] | increasing the levels of Nrf2 and inducing HO-1 synthesis [2] | TEAC [3] | effect of low levels of BSO on protection ([1]; 5 mM glutamate + 50 μM BSO, 24 hours, MTT) | EC50 ([1]; HT22 cells, 24 hours) [µM] | protection from oxidative stress-induced death ([1]; at 2.5 μM) [%] | effect of inhibition of ERK activation (PD98059) on Nrf2 and HO-1 induction ([2]; PD98059 pretreatment) | TEAC ([3]; listed as 3,7,3,′4′-THF (fisetin)) |
| --- | --- | --- | --- | --- | --- | --- | --- | --- | --- | --- | --- |
| O=c1cc(-c2ccc(O)c(O)c2)oc2ccccc12 [3′,4′-DHF, 3′,4′-dihydroxyflavone] | reduced protection | more effective than fisetin; also recorded: equal to or more effective than fisetin | 0.9 | > 90 | weakly active | 1.24 ± 0.08 |  |  |  |  |  |
| O=c1c(O)c(-c2ccc(O)c(O)c2)oc2ccccc12 [3,3′,4′-THF, 3,3′,4′-trihydroxyflavone] |  | equal to or more effective than fisetin | 1 | > 90 | fairly effective | 2.07 ± 0.06 | significantly reduced protection | 0.75 | > 85 |  |  |
| O=c1c(O)c(-c2ccc(O)c(O)c2)oc2cc(O)ccc12 [fisetin, 3,3′,4′,7-tetrahydroxyflavone] | reduced protection |  | 5 | > 90 | best of the group | ~3 |  |  |  | no effect | 3.11 ± 0.20 |

From patent US7897637B2, “Methods of using flavonoids to enhance memory” (The Salk Institute for Biological Studies, priority 2006, dated 2011)
